In patent US20230341397A1, “PROTEASE BIOSENSORS AND METHODS OF VIRUS DETECTION” (Montana Molecular LLC, priority 2020, published 2023):

Legend:
HEK 293 cells = conditions: all GC376 concentrations (FIG. 11B)
[1] = test system: feline infectious peritonitis virus (FPIV); conditions: Kim et al. 2016; disease otherwise 100% lethal; cited from earlier work

CC(C)C[C@H](NC(=O)OCc1ccccc1)C(=O)N[C@@H](C[C@@H]1CCNC1=O)C(O)S(=O)(=O)[O-].[Na+] (some centres unmarked) [GC376]
cell death / red fluorescent protein signal (HEK 293 cells): not due to cell death | outcome in cats with clinical FPIV [1]: rescues them
